{"source": "patent US20230301933A1", "about": "(priority 2020, published 2023)", "key": {"Critical Stage Covid-19": {"system": "Critical Stage Covid-19", "procedure": "Treated with concentration phenol 0.01% in 60 ml, drip infusion 20 minutes, once daily.\nDay 6 lowered dose to 0.01% concentration in 30 ml. Stopped treatment after treatment day 9."}, "[1]": {"settings": "insulin comprising 0.2 to 1.0 mg per dose phenol as preservative; cited from earlier work"}, "Early Stage CoViD-19": {"system": "Early Stage CoViD-19", "description": "Subject 2, suffering early stage CoViD-19. Former professional sportsman (soccer), doesn't smoke, no alcohol, weight 75 kg. Pre-treatment history. […] Came to GP for treatment.\nTreatment for four consecutive days of four subcutaneous injections as described for patient 1. First day of treatment is set as ‘Day 1’."}, "MRSA Lung Infection": {"system": "MRSA Lung Infection", "procedure": "Person, 88 kg, dyspnoea, cough, chest pain and fever, under urine catheter. Has used different antibiotic before and after operation prostate cancer and by lung infection.\nPhenol reduce to 0.02% 15 ml. duration 10 minutes for 5 more days."}, "[2]": {"procedure": "In an particularly attractive embodiment, the phenol is injected subcutaneously, i.e. in the soft tissue below the skin with a depth of up to 0.5-2.0 cm.\nIn another attractive embodiment, the phenol is administered intravenously."}, "Flu Pneumonia": {"system": "Flu Pneumonia", "settings": "human, in vivo"}, "Virus Induced Pneumonia": {"system": "Virus Induced Pneumonia", "description": "Subject 1 was a person, weight 85 kg, pre-condition asthma. […] Pre-treatment history:\nSelf-treatment with Ventolin and paracetamol. […] Sixth day. […] Patient thinks that the problem is serious, and contacts GP.\nTreatment started for 9 consecutive days by four subcutaneous injections of a 0.06 w/w % phenol in physiological saline daily administered in: 1 and 2) the posterior margin of the sternocleidomastoid muscle on the level of the larynx knot at both left and right side of the body, each about 1 cm deep; 3) the middle of the upper socket of the sternum about 0.5 cm deep, and 4) the depression below the spinous process of the 7th cervical vertebra, about 0.5 cm deep. First day of treatment is set as ‘Day 1’"}, "[3]": {"settings": "at end of treatment (3 days normal body temperature), phenol 0.01% drip infusion once daily"}, "[4]": {"settings": "day1, phenol 0.02% (in 30 ml), drip 15 minutes"}, "[5]": {"settings": "day2, phenol 0.02% (in 30 ml), drip 15 minutes"}, "[6]": {"settings": "day3, phenol 0.02% (in 30 ml), drip 15 minutes"}, "[7]": {"settings": "day4, phenol 0.02% (in 30 ml), drip 15 minutes"}, "[8]": {"settings": "day5, phenol 0.02% (in 30 ml), drip 15 minutes"}, "[9]": {"settings": "day6, phenol 0.02% (in 15 ml), drip 10 minutes"}, "[10]": {"settings": "day7, phenol 0.02% (in 15 ml), drip 10 minutes"}, "[11]": {"settings": "day8, phenol 0.02% (in 15 ml), drip 10 minutes"}, "[12]": {"settings": "day9, phenol 0.02% (in 15 ml), drip 10 minutes"}, "[13]": {"settings": "Day 1 (first day of treatment), four s.c. injections 0.06 w/w % phenol daily"}}, "note": "Like-named read-outs stand apart in the source and are kept apart here.", "data": [{"smiles": "Oc1ccccc1", "note": "[phenol]", "values": [{"measurement": "R/R", "setting": "Critical Stage Covid-19; [3]", "result": 20}, {"measurement": "SPO2", "setting": "Critical Stage Covid-19; [3]", "result": 97, "unit": "%"}, {"measurement": "R/R", "setting": "Critical Stage Covid-19; [4]", "result": 41}, {"measurement": "SpO2", "setting": "Critical Stage Covid-19; [4]", "result": 91, "unit": "%"}, {"measurement": "body temperature", "setting": "Critical Stage Covid-19; [4]", "result": 37.6, "unit": "°C"}, {"measurement": "R/R", "setting": "Critical Stage Covid-19; [5]", "result": 32}, {"measurement": "SpO2", "setting": "Critical Stage Covid-19; [5]", "result": 93, "unit": "%"}, {"measurement": "body temperature", "setting": "Critical Stage Covid-19; [5]", "result": 38.6, "unit": "°C"}, {"measurement": "R/R", "setting": "Critical Stage Covid-19; [6]", "result": 27}, {"measurement": "SpO2", "setting": "Critical Stage Covid-19; [6]", "result": 94, "unit": "%"}, {"measurement": "body temperature", "setting": "Critical Stage Covid-19; [6]", "result": 38.5, "unit": "°C"}, {"measurement": "R/R", "setting": "Critical Stage Covid-19; [7]", "result": 23}, {"measurement": "SpO2", "setting": "Critical Stage Covid-19; [7]", "result": 96, "unit": "%"}, {"measurement": "body temperature", "setting": "Critical Stage Covid-19; [7]", "result": 38.0, "unit": "°C"}, {"measurement": "R/R", "setting": "Critical Stage Covid-19; [8]", "result": 22}, {"measurement": "SpO2", "setting": "Critical Stage Covid-19; [8]", "result": 96, "unit": "%"}, {"measurement": "body temperature", "setting": "Critical Stage Covid-19; [8]", "result": 37.4, "unit": "°C"}, {"measurement": "day 6 evaluation: breathing", "setting": "Critical Stage Covid-19; day 6", "result": "day 6 evaluation patient breaths normally, still stress, coughing, feels good, day 6 started walking (with infusion)"}, {"measurement": "temperature, R/R, SpO2", "setting": "Critical Stage Covid-19; day 6", "result": "normal"}, {"measurement": "R/R", "setting": "Critical Stage Covid-19; [9]", "result": 20}, {"measurement": "SpO2", "setting": "Critical Stage Covid-19; [9]", "result": 97, "unit": "%"}, {"measurement": "body temperature", "setting": "Critical Stage Covid-19; [9]", "result": 37.0, "unit": "°C"}, {"measurement": "R/R", "setting": "Critical Stage Covid-19; [10]", "result": 20}, {"measurement": "SpO2", "setting": "Critical Stage Covid-19; [10]", "result": 97, "unit": "%"}, {"measurement": "body temperature", "setting": "Critical Stage Covid-19; [10]", "result": 36.8, "unit": "°C"}, {"measurement": "R/R", "setting": "Critical Stage Covid-19; [11]", "result": 20}, {"measurement": "SpO2", "setting": "Critical Stage Covid-19; [11]", "result": 97, "unit": "%"}, {"measurement": "body temperature", "setting": "Critical Stage Covid-19; [11]", "result": 36.9, "unit": "°C"}, {"measurement": "day 9 evaluation: body temperature", "setting": "Critical Stage Covid-19; day 9", "result": "day 9 evaluation patients three days normal body temperature."}, {"measurement": "R/R", "setting": "Critical Stage Covid-19; [12]", "result": 18}, {"measurement": "SpO2", "setting": "Critical Stage Covid-19; [12]", "result": 97, "unit": "%"}, {"measurement": "body temperature", "setting": "Critical Stage Covid-19; [12]", "result": 36.8, "unit": "°C"}, {"measurement": "Time after start of treatment at which improvement of R/R and SpO2 was measured", "setting": "Critical Stage Covid-19; drip infusion once daily", "result": 6, "unit": "h"}, {"measurement": "Accumulation of phenol in the body by daily use", "setting": "[1]", "result": "no significant accumulation"}, {"measurement": "Temperature", "setting": "Early Stage CoViD-19; [13]", "result": 38.4, "unit": "°C"}, {"measurement": "Temperature", "setting": "Early Stage CoViD-19; Day 2", "result": 37.2, "unit": "°C"}, {"measurement": "Temperature", "setting": "Early Stage CoViD-19; Day 3", "result": 36.8, "unit": "°C"}, {"measurement": "Temperature", "setting": "Early Stage CoViD-19; Day 4", "result": "normal"}, {"measurement": "Temperature", "setting": "Early Stage CoViD-19; Day 5", "result": "normal"}, {"measurement": "Duration of slight headache after treatment", "setting": "Early Stage CoViD-19; after first treatment", "result": "about four"}, {"measurement": "Time the slight cough remained", "setting": "Early Stage CoViD-19; counted from Day 5, then fully gone", "result": 5, "unit": "days"}, {"measurement": "Side effects", "setting": "Early Stage CoViD-19; four consecutive days of s.c. injections", "result": "No other side effects noted"}, {"measurement": "Injection location reaction", "setting": "Early Stage CoViD-19; s.c. injection", "result": "slight pain at injection"}, {"measurement": "X-lung: pneumonia", "setting": "MRSA Lung Infection; Day 18th", "result": "almost recovered"}, {"measurement": "Fever (temperature), reduced from 38.0", "setting": "MRSA Lung Infection; after 0.02% phenol 30 ml infusion once per day for 3 days", "result": 37.4, "unit": "°C"}, {"measurement": "Temperature", "setting": "MRSA Lung Infection; during 0.02% phenol 15 ml, 10 minutes, for 5 more days", "result": "under 37 °C"}, {"measurement": "Duration of immediate effect", "setting": "[2]; intravenous administration", "result": "7 to 14", "unit": "days"}, {"measurement": "Time phenol may remain in the body", "setting": "[2]; intravenous administration", "result": "about 24 hours"}, {"measurement": "Duration of immediate effect", "setting": "[2]; subcutaneous injection", "result": "about 7 days"}, {"measurement": "Time phenol may remain in the body", "setting": "[2]; subcutaneous injection", "result": "about 24 hours"}, {"measurement": "Breathing", "setting": "Flu Pneumonia", "result": "breaths quietly"}, {"measurement": "Patient outcome", "setting": "Flu Pneumonia", "result": "physical recovered with some cough"}, {"measurement": "X-lung infiltrate", "setting": "Flu Pneumonia", "result": "much improved"}, {"measurement": "Fever (temperature)", "setting": "Flu Pneumonia; iv", "result": "36.8-37.5 °C"}, {"measurement": "Heartbeat", "setting": "Flu Pneumonia; iv", "result": "about 90 per minute"}, {"measurement": "Side effects after injection", "setting": "Virus Induced Pneumonia; 9 consecutive days of s.c. injections", "result": "slight headache, no other side effect after injection"}, {"measurement": "Temperature", "setting": "Virus Induced Pneumonia; [13]", "result": 38.1, "unit": "°C"}, {"measurement": "Short breath", "setting": "Virus Induced Pneumonia; Day 2", "result": "Limited feeling of short breath and asthma"}, {"measurement": "Temperature", "setting": "Virus Induced Pneumonia; Day 2, four s.c. injections 0.06 w/w % phenol daily", "result": 37.6, "unit": "°C"}, {"measurement": "Short breath", "setting": "Virus Induced Pneumonia; Day 3", "result": "Less short breath"}, {"measurement": "Temperature", "setting": "Virus Induced Pneumonia; Day 3", "result": 37.4, "unit": "°C"}, {"measurement": "Short breath", "setting": "Virus Induced Pneumonia; Day 4", "result": "Short breath much better"}, {"measurement": "Temperature", "setting": "Virus Induced Pneumonia; Day 4", "result": 37.4, "unit": "°C"}, {"measurement": "Short breath", "setting": "Virus Induced Pneumonia; Day 5", "result": "Short breath slightly better"}, {"measurement": "Temperature", "setting": "Virus Induced Pneumonia; Day 5", "result": 37.4, "unit": "°C"}, {"measurement": "Short breath", "setting": "Virus Induced Pneumonia; Day 6", "result": "No more short breath"}, {"measurement": "Temperature", "setting": "Virus Induced Pneumonia; Day 6", "result": 37.0, "unit": "°C"}, {"measurement": "Breathing", "setting": "Virus Induced Pneumonia; Day 7", "result": "Breathing normal"}, {"measurement": "Fever", "setting": "Virus Induced Pneumonia; Day 7", "result": "No fever"}, {"measurement": "Fever", "setting": "Virus Induced Pneumonia; Day 8", "result": "No fever"}]}]}
